Measurements as given in article PMC7180842, “Efficacy of Topical Treatment with (−)-Epigallocatechin Gallate, A Green Tea Catechin, in Mice with Cutaneous Leishmaniasis” (Molecules, 2020).
Converted amounts (≈) assume the structure as drawn.

Tests used:
[1] = system: promastigotes of L. (L.) amazonensis; design: method as in earlier work; conditions: cited from earlier work
[2] = system: promastigotes of L. (V.) braziliensis; design: method as in earlier work; conditions: cited from earlier work
L. (L.) amazonensis = assay: In vivo cutaneous leishmaniasis model, infected ear dermis of BALB/c mice; conditions: 18 days; for Parasite burden inhibition: once a day, six times a week, from week six postinfection, vs control group; for Lesion size: week 10, vs control group, p < 0.05
Experimental: Female BALB/c mice of six weeks old (weight, 20 to 25 g) were randomly separated into three groups of five animals and were inoculated by intradermal via in their right ear with 5 × 10^3 (20 µL) infective promastigotes of L. (L.) amazonensis (late log phase of growth). The animals were housed in groups of five in metal cages under a controlled environmental condition (12:12 h light/dark cycle and 23 °C room temperature) with food and water ad libitum.
At week six postinfection, mice received the treatments as follow: group 1, treated with EGCG in USP hydrophilic ointment (15%), group 2, treated with 120 mg Sb^v/kg/d of Gl administered by intraperitoneal route, and group 3, control mice (without treatment). EGCG was uniformly mixed in USP hydrophilic cream (Yoshida Pharmaceutical Co., Saitama, Japan) (15% w/w) and was topically applied (20 mg/lesion). EGCG ointment was prepared daily. The treatments were given during 18 days, once a day, six times a week, until the end of the treatments (9th week). The efficacy of treatments was determined by measuring the lesions’ sizes (mm^2) with a digital caliper weekly (150 mm; Digimess) and by quantifying the parasite burden with the limit dilution assay as was described previously.
(§1) The GraphPad Prism 5.0 software (GraphPad Software Inc., San Diego, CA, USA) was employed to carry out calculations of the IC50 and CC50 values by a nonlinear regression. Multiple comparisons of lesions’ sizes between groups were made with a one-way analysis of variance (ANOVA) followed by Tukey test. The statistical analysis of the parasite burden data obtained by the limiting dilution assay was done using ELIDA software, which analyses data through the Poisson distribution and by the X^2 test. p < 0.05 was considered significant. The data are representative of two separate experiments in vivo.

[3] = system: intracellular amastigotes of L. (L.) amazonensis; assay: In vitro antiamastigote activity in infected THP1-derived macrophages; assay type: cell-based, Leishmania (Leishmania) amazonensis; conditions: for SI (selectivity index, ratio CC50 THP1/IC50 Leishmania): CC50 THP1/IC50 intracellular amastigotes; for SI (selectivity index, ratio CC50 THP1/IC50 Leishmania) / IC50: 48 h; for IC50: Leishmania amazonensis, Macrophage; for IC50 / Intracellular Amastigotes IC50: macrophages infected with L. (L.) amazonensis, 48 h of treatment, 34 °C
Experimental: THP1 cells (2 × 10^5/mL) were differentiated to macrophages with 10 ng/mL of phorbol myristate acetate and placed in Lab-Tek eight chamber slides for 24 h at 37 °C in a 5% CO2 95% air mixture. Adherent macrophages were infected with L. (L.) amazonensis at a ratio of four parasites per macrophage and incubated at 34 °C in a 5% CO2 95% air mixture during 24 h. After infection, the cells were washed with pre-warmed PBS to remove free parasites. A new medium with different concentrations of EGCG, EGC, GCG and GC (2.3 to 130 µg/mL) and Gl (2.5 to 80 µg Sb^v/mL) was added to each well. The positive controls were infected cells cultured under the presence of complete RPMI-1640 medium. The chambers were returned to the CO2 incubator for an additional 48 h at 34 °C, 5% CO2 [17]. The cells were stained with Diff Quik (Biopur S.R.L., Rosario, Argentina), and the results were expressed as the concentration of compound to inhibit the 50% of the growth (IC50) of the intracellular amastigotes.
as §1

[4] = Macrophage cytotoxicity screening (MTT assay); assay type: cell-based; conditions: human, THP1 cells differentiated to macrophages
Experimental: The cytotoxicity of EGCG, EGC, GCG and GC was evaluated in a human monocytic cell line derived from an acute monocytic leukemia patient (THP1). The cells (3 x 10^4/150 µL) were first differentiated to macrophages with 10 ng/mL of phorbol myristate acetate for 24 h at 37 °C in a 5% CO2 95% air mixture. […] The controls were incubated with RPMI 1640 medium (Gibco, Grand Island, NY, USA). The viability of the macrophages was determined by the MTT assay (Nacalai tesque, Kyoto, Japan). Briefly, 50 μL of MTT (2 mg/mL) was added to each well and, after 4 h of incubation at 37 °C, the reaction was stopped dissolving the formazan crystals with 100 μL/well of dimethyl sulfoxide (DMSO). The relative amount of formazan produced by viable macrophages was determined using a spectrophotometer at 570 nm. The percentage of viable cells was calculated according to the formula: OD treated culture–OD blank x 100/OD control–OD blank as was described previously. The CC50 was calculated for each compound as the concentration of compound that reduces cell growth by 50%.
as §1

L. (L.) donovani = system: L. (L.) donovani; design: method as in PMID 16569852; conditions: cited from earlier work
[5] = system: intracellular amastigotes of L. (L.) amazonensis; design: method as in PMID 22735546; conditions: infected macrophage cultures incubated at 37 °C; cited from earlier work
[6] = system: intracellular amastigotes of L. (V.) braziliensis; design: method as in PMID 25144225; conditions: infected macrophage cultures incubated at 37 °C; cited from earlier work
L. (V.) braziliensis = system: L. (V.) braziliensis; design: method as in PMID 24106750, PMID 22735546; conditions: EGCG oral treatment, BALB/c mice; cited from earlier work
[7] = intraperitoneal 120 mg Sb^v/kg/d

Compound | Leishmanicidal activity / growth of promastigotes [1] | Leishmanicidal activity / growth of promastigotes [2] | SI (selectivity index, ratio CC50 THP1/IC50 Leishmania) [3] | IC50 [3] | CC50 at 48 h [4] | other results
O=C(O[C@@H]1Cc2c(O)cc(O)cc2O[C@H]1c1ccc(O)c(O)c1)c1cc(O)c(O)c(O)c1 [(−)-catechin gallate] | did not inhibit the growth | did not inhibit the growth | – | – | – | –
Oc1cc(O)c2c(c1)O[C@H](c1ccc(O)c(O)c1)[C@H](O)C2 [(−)-epicatechin] | did not inhibit the growth | did not inhibit the growth | – | – | – | –
Meglumine antimoniate [reference compound] | – | – | – | – | – | Parasite burden inhibition (L. (L.) amazonensis; [7]): 85.1%; Lesion size (L. (L.) amazonensis; [7]): reduced the lesion size
Oc1cc(O)c2c(c1)O[C@H](c1cc(O)c(O)c(O)c1)[C@H](O)C2 [EGC, (−)-epigallocatechin] | leishmanicidal activity | leishmanicidal activity | ≥2.7 | < 59.6 µg/mL | 121 ± 20 µg/mL (≈ 394 µM) | SI (selectivity index, ratio CC50 THP1/IC50 Leishmania) ([3]; listed as (−)-epigallocatechin): > 1; Intracellular Amastigotes IC50 [3]: ≥44.3 µg/mL
O=C(O[C@@H]1Cc2c(O)cc(O)cc2O[C@H]1c1cc(O)c(O)c(O)c1)c1cc(O)c(O)c(O)c1 [GCG, (−)-gallocatechin gallate] | leishmanicidal activity | leishmanicidal activity | 1.4 | 67.5 ± 9.5 µg/mL (≈ 147 µM) | 94.9 ± 11.8 µg/mL (≈ 207 µM) | IC50 against L. (L.) donovani (L. (L.) donovani): 8.9 µg/mL (≈ 19.4 µM)
Oc1cc(O)c2c(c1)O[C@H](c1ccc(O)c(O)c1)[C@@H](O)C2 [(+)-catechin] | did not inhibit the growth | did not inhibit the growth | – | – | – | –
Oc1cc(O)c2c(c1)O[C@@H](c1cc(O)c(O)c(O)c1)[C@H](O)C2 [GC, (−)-gallocatechin] | leishmanicidal activity | leishmanicidal activity | 1.2 | 93.5 ± 5 µg/mL (≈ 305 µM) | 115 ± 37.1 µg/mL (≈ 376 µM) | –
O=C(O[C@@H]1Cc2c(O)cc(O)cc2O[C@@H]1c1cc(O)c(O)c(O)c1)c1cc(O)c(O)c(O)c1 [EGCG, (−)-Epigallocatechin gallate] | leishmanicidal activity | leishmanicidal activity | 1.5 | < 59.6 µg/mL | 88.9 ± 21.9 µg/mL (≈ 194 µM) | SI (selectivity index, ratio CC50 THP1/IC50 Leishmania) ([3]; listed as (−)-Epigallocatechin gallate): > 1; Intracellular Amastigotes IC50 [3]: 59.6 ± 9.3 µg/mL; Parasite burden inhibition (L. (L.) amazonensis; topical 15% EGCG in USP hydrophilic ointment, 20 mg/lesion): 80.4%; Lesion size (L. (L.) amazonensis; topical 15% EGCG): significant reduction of the lesion size; IC50 against intracellular amastigotes [5]: 0.74 µg/mL (≈ 1.61 µM); IC50 against intracellular amastigotes [6]: 1.57 µg/mL (≈ 3.43 µM); IC50 against L. (L.) donovani (L. (L.) donovani): 19.1 µg/mL (≈ 41.7 µM); Parasite burden inhibition (L. (V.) braziliensis): 92.1%
